Data as given in patent publication US12377104B1, “Methods for treating a fatty liver disease” (Madrigal Pharmaceuticals, Inc., priority 2024, dated 2025).
Values joined by “and” are separate entries in the source; they are usually repeats but may differ in a detail not shown here. Equal entries are not always repeated.

Test system: adults with biopsy-confirmed NASH
Experiment: MAESTRO-NASH: lipids, lipoproteins and lipid particles
Type: in vivo, human
Details: 80 mg; for ApoB, Least Squares Mean % CFB / ApoB, Least Squares Mean % CFB Difference from PBO / LDL-C, Least Squares Mean % CFB / LDL-C, Least Squares Mean % CFB Difference from PBO: baseline LDL-C >100 mg/dL; for Lp(a), LS mean % CFB / Lp(a), LS mean % CFB difference from PBO: baseline Lp(a) >10 nmol/L; for Triglycerides, LS mean % CFB / Triglycerides, LS mean % CFB difference from PBO: baseline triglycerides >150 mg/dL
Procedure: Within the study, we provided analyses based on an analysis of covariance (ANCOVA) model after having performed single imputation for LDL-C as described in the statistical analysis plan (SAP). The ANCOVA model estimated least-squares means using treatment and baseline LDL-C as covariate.
To this end, the Week 24 LDL-C assessment and assessments at any visit in which LDL-C is measured (Weeks 4, 12, 16, 20, 24, 28, 32, 36, 40, 44, 48, and 52) that has been impacted by kit shortage at the prior visit (unavailability of […] (IP) during the 4 weeks preceding the visit due to the COVID-19 pandemic as indicated on the electronic case report form (eCRF)), were considered missing and were imputed from an unaffected assessment at surrounding visits or using data from subjects unaffected by this intercurrent event as described in Section 11.2 of the SAP. In summary, single imputation utilizing adjacent and valid […] measurements were imputed.
For missing lipid data that are still missing after the single imputation approach described, those missing lipid data were imputed using the non-missing lipid values (including the singly imputed data) based on missing at random (MAR)-based (MI). When applying the MAR-based […], data were imputed separately by randomized treatment group and baseline stratification factors.

Which results are given for `CC(C)c1cc(Oc2c(Cl)cc(-n3nc(C#N)c(=O)[nH]c3=O)cc2Cl)n[nH]c1=O` [Resmetirom, 2-(3,5-dichloro-4-((5-isopropyl-6-oxo-1,6-dihydropyridazin-3-yl)oxy)phenyl)-3,5-dioxo-2,3,4,5-tetrahydro-1,2,4-triazine-6-carbonitrile]?
Apolipoprotein B level, difference from placebo (wk 24): −17.2 percentage points; Apolipoprotein B level, least-squares mean percent change from baseline (wk 24): −16.8 ± 1.3%; LDL cholesterol level, difference from placebo (wk 24): −13.7 percentage points; LDL cholesterol level, least-squares mean percent change from baseline (wk 24): −13.6% and −13.6 ± 1.7%; Lipoprotein(a) level, difference from placebo (wk 24): −29.5 percentage points; Triglyceride level, difference from placebo (wk 24): −20.1 percentage points; Lipoprotein(a) level, least-squares mean percent change from baseline (wk 24, baseline lipoprotein(a) >10 nmol per liter): −30.4 ± 3.8%; Triglyceride level, least-squares mean percent change from baseline (wk 24, baseline triglyceride >150 mg per deciliter): −22.7 ± 4.0%; ApoB, LS mean % CFB (Week 24): −16.8%; ApoB, LS mean % CFB difference from PBO (Week 24): −17.2%; ApoCIII, Least Squares Mean % CFB (Week 24): −10.6%; ApoCIII, Least Squares Mean % CFB Difference from PBO (Week 24): −18.7%; HDL-C, Least Squares Mean % CFB (Week 24): 2.7%; HDL-C, Least Squares Mean % CFB Difference from PBO (Week 24): 0.98%; LDL-C, LS mean % CFB (Week 24): −13.6%; LDL-C, LS mean % CFB difference from PBO (Week 24): −13.7%; Non-HDL-C, Least Squares Mean % CFB (Week 24): −15.2%; Non-HDL-C, Least Squares Mean % CFB Difference from PBO (Week 24): −15.4%; ApoB, Least Squares Mean % CFB (Week 24): −21.9%; ApoB, Least Squares Mean % CFB Difference from PBO (Week 24): −18.1%; LDL-C, Least Squares Mean % CFB (Week 24): −21.3%; LDL-C, Least Squares Mean % CFB Difference from PBO (Week 24): −15.4%; ApoCIII, Least Squares Mean % CFB (Week 52): −10.0%; ApoCIII, Least Squares Mean % CFB Difference from PBO (Week 52): −19.8%; HDL particle size, Least Squares Mean % CFB (Week 52): 0.90%; HDL particle size, Least Squares Mean % CFB Difference from PBO (Week 52): 0.60%; HDL particles, Least Squares Mean % CFB (Week 52): 5.2%; HDL particles, Least Squares Mean % CFB Difference from PBO (Week 52): 3.6%; HDL-C, Least Squares Mean % CFB (Week 52): 4.7%; HDL-C, Least Squares Mean % CFB Difference from PBO (Week 52): 2.1%; LDL particle size, Least Squares Mean % CFB (Week 52): −0.32%; LDL particle size, Least Squares Mean % CFB Difference from PBO (Week 52): −0.36%; LDL particles, Least Squares Mean % CFB (Week 52): −16.8%; LDL particles, Least Squares Mean % CFB Difference from PBO (Week 52): −16.1%; Large HDL particles, Least Squares Mean % CFB (Week 52): 12.3%; Large HDL particles, Least Squares Mean % CFB Difference from PBO (Week 52): 0.06%; Large LDL particles, Least Squares Mean % CFB (Week 52): 47.8%; Large LDL particles, Least Squares Mean % CFB Difference from PBO (Week 52): −38.6%; Large VLDL and chylomicron particles, Least Squares Mean % CFB (Week 52): −5.7%; Large VLDL and chylomicron particles, Least Squares Mean % CFB Difference from PBO (Week 52): −16.8%; Medium HDL particles, Least Squares Mean % CFB (Week 52): 88.2%; Medium HDL particles, Least Squares Mean % CFB Difference from PBO (Week 52): 23.1%; Medium VLDL particles, Least Squares Mean % CFB (Week 52): −18.7%; Medium VLDL particles, Least Squares Mean % CFB Difference from PBO (Week 52): −134.5%; Non-HDL-C, Least Squares Mean % CFB (Week 52): −15.7%; Non-HDL-C, Least Squares Mean % CFB Difference from PBO (Week 52): −15.3%; Small LDL particles, Least Squares Mean % CFB (Week 52): −3.3%; Small LDL particles, Least Squares Mean % CFB Difference from PBO (Week 52): −25.0%; Small VLDL particles, Least Squares Mean % CFB (Week 52): 62.9%; Small VLDL particles, Least Squares Mean % CFB Difference from PBO (Week 52): -21.3%; VLDL and chylomicron particles, Least Squares Mean % CFB (Week 52): −11.2%; VLDL and chylomicron particles, Least Squares Mean % CFB Difference from PBO (Week 52): −19.4%; VLDL and chylomicron triglycerides, Least Squares Mean % CFB (Week 52): −14.7%; VLDL and chylomicron triglycerides, Least Squares Mean % CFB Difference from PBO (Week 52): −19.6%; VLDL particle size, Least Squares Mean % CFB (Week 52): 1.9%; VLDL particle size, Least Squares Mean % CFB Difference from PBO (Week 52): −0.05%; ApoB, Least Squares Mean % CFB (Week 52): −25.0%; ApoB, Least Squares Mean % CFB Difference from PBO (Week 52): −18.5%; LDL-C, Least Squares Mean % CFB (Week 52): −25.3%; LDL-C, Least Squares Mean % CFB Difference from PBO (Week 52): −15.7%; Lp(a), LS mean % CFB (week 24): 30.4%; Lp(a), LS mean % CFB difference from PBO (week 24): -29.5%; Triglycerides, LS mean % CFB (week 24): -22.7%; Triglycerides, LS mean % CFB difference from PBO (week 24): −20.1%; ApoB, LS mean % CFB (week 52): -16.2%; ApoB, LS mean % CFB difference from PBO (week 52): −16.8%; LDL-C, LS mean % CFB (week 52): -13.7%; LDL-C, LS mean % CFB difference from PBO (week 52): −13.3%; Lp(a), LS mean % CFB (week 52): −34.0%; Lp(a), LS mean % CFB difference from PBO (week 52): −29.5%; Triglycerides, LS mean % CFB (week 52): −22.5%; Triglycerides, LS mean % CFB difference from PBO (week 52): −19.0%
